Measurements as given in patent US20240059691A1 (KALVISTA PHARMACEUTICALS LIMITED, priority 2020, published 2024).

What follows are compounds tested against Human Factor XIIa (Homo sapiens (Human), UniProt P00748) (assay: Determination of FXIIa inhibition (fluorogenic substrate H-DPro-Phe-Arg-AFC, IC50 assay)). Details: substrate H-DPro-Phe-Arg-AFC at Km, 25° C.; class scale A-G.
Type: biochemical
Protocol: Determination of FXIIa Inhibition
In vitro inhibition of Factor XIIa was determined using an IC50 assay based on standard literature methods (see e.g Baeriswyl et al., ACS Chem. Biol., 2015, 10 (8) 1861; Bouckaert et al., European Journal of Medicinal Chemistry 110 (2016) 181). Human Factor XIIa (Enzyme Research Laboratories) was incubated at 25° C. with the fluorogenic substrate H-DPro-Phe-Arg-AFC (Peptide Protein Science) and various concentrations of the test compound. Protease activity was measured by monitoring the accumulation of liberated fluorescence from the substrate over 5 min at 25° C. The linear rate of fluorescence increase per minute was expressed as percentage (%) activity. The Km for the cleavage of the substrate by FXIIa was determined by standard transformation of the Michaelis-Menten equation. The compound inhibitor assays were performed at substrate Km concentration. IC50 values were calculated as the concentration of inhibitor giving 50% inhibition (IC50) of the uninhibited enzyme activity (100%).

Human Factor XIIa, sequence (P00748 373-615): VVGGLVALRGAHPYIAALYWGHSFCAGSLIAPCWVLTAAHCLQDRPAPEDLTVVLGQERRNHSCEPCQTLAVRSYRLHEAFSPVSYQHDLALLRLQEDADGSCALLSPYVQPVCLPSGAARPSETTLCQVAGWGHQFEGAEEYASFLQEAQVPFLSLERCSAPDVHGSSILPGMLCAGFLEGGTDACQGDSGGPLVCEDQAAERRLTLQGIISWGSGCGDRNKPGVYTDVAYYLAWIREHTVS

Row | IC50 [nM] | SMILES
1 | 3000 to 10000 | Cn1ccnc1COc1cc(CNc2ccc3c(N)nccc3c2)ccn1 [Example 4422, 6-N-({2-[(1-methylimidazol-2-yl)methoxy]pyridin-4-yl}methyl)isoquinoline-1,6-diamine]
2 | 300 to 1000 | CN1CCC(C)(COc2cc(CNc3ccc4c(N)nccc4c3)ccn2)CC1 [Example 4425, 6-N-({2-[(1,4-dimethylpiperidin-4-yl)methoxy]pyridin-4-yl}methyl)isoquinoline-1,6-diamine]
3 | 3000 to 10000 | CN1CCN(CCc2cccc(CNc3ccc4c(N)nccc4c3)c2)CC1 [Example 4288, 6-N-({3-[2-(4-methylpiperazin-1-yl)ethyl]phenyl}methyl)isoquinoline-1,6-diamine]
4 | 300 to 1000 | CN1C[C@@H]2C(COc3cc(CNc4cccc5c(N)nccc45)ccn3)[C@@H]2C1 (stereo partly drawn) [Example 4418, 5-N-[(2-{[(1R,5S)-3-methyl-3-azabicyclo[3.1.0]hexan-6-yl]methoxy}pyridin-4-yl)methyl]isoquinoline-1,5-diamine]
5 | 10000 to 40000 | CN1CCC(COc2cc(CNc3ccc4c(N)ncnc4c3)ccn2)CC1 [Example 4263, 7-N-({2-[(1-methylpiperidin-4-yl)methoxy]pyridin-4-yl}methyl)quinazoline-4,7-diamine]
6 | 300 to 1000 | CN1CCC(COc2cc(CNc3ccc4c(N)nccc4c3)ccn2)CC1=O (stereo not shown) [Example 4416, 4-{[(4-{[(1-aminoisoquinolin-6-yl)amino]methyl}pyridin-2-yl)oxy]methyl}-1-methylpiperidin-2-one]
7 | 100 to 300 | CC(Oc1cc(CNc2ccc3c(N)nccc3c2)ccn1)C1CCN(C)CC1 (stereo not shown) [Example 4414, 6-N-({2-[1-(1-methylpiperidin-4-yl)ethoxy]pyridin-4-yl}methyl)isoquinoline-1,6-diamine]
8 | 300 to 1000 | CC(=O)N1CCC(OCc2ccc(CNc3ccc4c(N)nccc4c3)c(F)c2)CC1 [Example 2200, 1-(4-((4-(((1-aminoisoquinolin-6-yl)amino)methyl)-3-fluorobenzyl)oxy)piperidin-1-yl)ethan-1-one]
9 | 300 to 1000 | CN1CCC(COc2cc(CNc3cccc4c(N)nccc34)ccn2)CC1=O (stereo not shown) [Example 4417, 4-{[(4-{[(1-aminoisoquinolin-5-yl)amino]methyl}pyridin-2-yl)oxy]methyl}-1-methylpiperidin-2-one]
10 | 10000 to 40000 | Nc1nccc2cc(NCc3ccnc(N4CCn5c(nnc5C(F)(F)F)C4)c3)ccc12 [Example 4471, N6-((2-(3-(trifluoromethyl)-5,6-dihydro-[1,2,4]triazolo[4,3-a]pyrazin-7(8H)-yl)pyridin-4-yl)methyl)isoquinoline-1,6-diamine]
11 | 300 to 1000 | Nc1ncc(Cl)c2cc(NCc3ccc(OCC4CCn5ccnc5C4)nc3)ccc12 (stereo not shown) [Example 1041, 4-Chloro-N6-[[6-(5,6,7,8-tetrahydroimidazo[1,2-a]pyridin-7-ylmethoxy)-3-pyridyl]methyl]isoquinoline-1,6-diamine]
12 | 1000 to 3000 | Cc1nnc2n1CCC(COc1cc(CNc3ccc4c(N)nccc4c3)ccn1)C2 (stereo not shown) [Example 4413, 6-N-{[2-({3-methyl-5H,6H,7H,8H-[1,2,4]triazolo[4,3-a]pyridin-7-yl}methoxy)pyridin-4-yl]methyl}isoquinoline-1,6-diamine]
13 | 3000 to 10000 | Nc1nccc2cc(NCc3ccc(OCc4ccncc4)nc3)ccc12 [Example 1014, 6-N-{[6-(pyridin-4-ylmethoxy)pyridin-3-yl]methyl}isoquinoline-1,6-diamine]

The next lines start with the compound.

Row | SMILES | IC50 [nM]
14 | COCC1c2nnc(C(F)(F)F)n2CCN1c1cc(C)c(CNc2cccc3c(N)nccc23)cn1 (single isomer, unassigned) [Example 1343, (S*)-N5-((6-(8-(methoxymethyl)-3-(trifluoromethyl)-5,6-dihydro-[1,2,4]triazolo[4,3-a]pyrazin-7(8H)-yl)-4-methylpyridin-3-yl)methyl)isoquinoline-1,5-diamine] | 3000 to 10000
15 | CN1CCC(C)(COc2cc(CNc3cccc4c(N)nccc34)ccn2)CC1 [Example 4424, N5-((2-((1,4-dimethylpiperidin-4-yl)methoxy)pyridin-4-yl)methyl)isoquinoline-1,5-diamine] | 100 to 300
16 | Cc1cc(N2CCn3c(nnc3C(F)(F)F)C2)ncc1CNc1ccc2nccn2c1 [Example 1322, N-((4-methyl-6-(3-(trifluoromethyl)-5,6-dihydro-[1,2,4]triazolo[4,3-a]pyrazin-7(8H)-yl)pyridin-3-yl)methyl)imidazo[1,2-a]pyridin-6-amine] | 10000 to 40000
17 | Nc1nccc2c(NCc3ccnc(N4CCn5c(nnc5C(F)(F)F)C4)c3)cccc12 [Example 4472, N5-((2-(3-(trifluoromethyl)-5,6-dihydro-[1,2,4]triazolo[4,3-a]pyrazin-7(8H)-yl)pyridin-4-yl)methyl)isoquinoline-1,5-diamine] | 1000 to 3000
18 | Cc1cc(N2CCn3c(nnc3C(F)(F)F)C2C)cnc1CNc1cccc2c(N)nccc12 (single isomer, unassigned) [Example 1345, (R*)-N5-((3-methyl-5-(8-methyl-3-(trifluoromethyl)-5,6-dihydro-[1,2,4]triazolo[4,3-a]pyrazin-7(8H)-yl)pyridin-2-yl)methyl)isoquinoline-1,5-diamine] | 10 to 100
19 | CN1CCN(C(=O)Cc2ccc(CNc3ccc4c(N)nccc4c3)cc2)CC1 [Example 2179, 2-(4-{[(1-aminoisoquinolin-6-yl)amino]methyl}phenyl)-1-(4-methylpiperazin-1-yl)ethanone] | 1000 to 3000
20 | Cc1cc(N2CCn3c(nnc3C(F)(F)F)C2C)ncc1CNc1ccnc2[nH]c(Cl)cc12 (single isomer, unassigned) [Example 1316, (S*)-2-Chloro-N-((4-methyl-6-(8-methyl-3-(trifluoromethyl)-5,6-dihydro-[1,2,4]triazolo[4,3-a]pyrazin-7(8H)-yl)pyridin-3-yl)methyl)-1H-pyrrolo[2,3-b]pyridin-4-amine] | 10 to 100
21 | CCC1c2nnc(C(F)(F)F)n2CCN1c1cc(C)c(CNc2cccc3c(N)nccc23)cn1 (stereo not shown) [Example 1331, N5-((6-(8-ethyl-3-(trifluoromethyl)-5,6-dihydro-[1,2,4]triazolo[4,3-a]pyrazin-7(8H)-yl)-4-methylpyridin-3-yl)methyl)isoquinoline-1,5-diamine] | 100 to 300
22 | CCC1c2nnc(C(F)(F)F)n2CCN1c1cc(C)c(CNc2cccc3c(N)nccc23)cn1 (single isomer, unassigned) [Example 1320, (R*)-N5-((6-(8-ethyl-3-(trifluoromethyl)-5,6-dihydro-[1,2,4]triazolo[4,3-a]pyrazin-7(8H)-yl)-4-methylpyridin-3-yl)methyl)isoquinoline-1,5-diamine] | 10000 to 40000
23 | CN1CCC(COc2cc(CNc3cnc4[nH]cc(Cl)c4c3)ccn2)CC1 [Example 4264, 3-chloro-N-((2-((1-methylpiperidin-4-yl)methoxy)pyridin-4-yl)methyl)-1H-pyrrolo[2,3-b]pyridin-5-amine] | 10000 to 40000
24 | Cc1cc(N2CCn3c(nnc3C(F)(F)F)C2C)ncc1CNc1ccnc2[nH]c(Cl)cc12 (racemic) [Example 1314, 2-Chloro-N-((4-methyl-6-(8-methyl-3-(trifluoromethyl)-5,6-dihydro-[1,2,4]triazolo[4,3-a]pyrazin-7(8H)-yl)pyridin-3-yl)methyl)-1H-pyrrolo[2,3-b]pyridin-4-amine] | 10 to 100
25 | CN1CCN(Cc2ccc(CNc3ccc4c(N)nccc4c3)cc2)CC1 [Example 1007, 6-N-({4-[(4-methylpiperazin-1-yl)methyl]phenyl}methyl)isoquinoline-1,6-diamine] | 300 to 1000
